Results reported in US5183821A, “Method for treating leukemias using N-(2-dimethylaminoethyl)-3-amino-1,8-naphthalimide for treating leukemias and solid tumors” (priority 1991, dated 1993).
“Also recorded” adds a separate entry of the source.

Columns and labels:
Fischer 344 rats = test: Five daily dose rat toxicity study; format: in vivo; conditions: for toxicity summary, rats: five daily doses i.v. (X5)
Description: Preclinical toxicity studies of BIDA were completed in CD2F1 Mice, Fischer 344 rats and beagle dogs (4). The animals were injected IV with a single bolus or daily for five days.
A preclinical toxicology study of benzisoquinolinedione (NSC-308847) was done at Springborn Institute for Bioresearch, Inc. using CD2 F1 mice, Fischer 344 rats and beagle dogs. Animals were injected intravenously on a single dose (X1) or five daily dose (X5) regimen. Bulk drug was titrated with 0.5N HCl to form a salt solution of benzisoquinolinedione at a pH of 5.0-6.5. Sterile 0.9% saline was used for diluting the dosing solutions and was used for the vehicle control animals.
The following summarizes the major organ toxicities resulting from IV administration of benzisoquinolinedione to rats.

L-1210 Lymphoid Leukemia = test: NCI screen, L-1210 Lymphoid Leukemia, intraperitoneal (summary); format: in vivo, Mouse; conditions: for dosage range over which activity was observed: i.p. L1210, ILS≥25%
Text: The activity of the compound has been evaluated by experiments carried out under the auspices of the Division of Cancer Treatment, National Cancer Institute, employing techniques considered to be reliable indicators of chemotherapeutic utility in the treatment of forms of cancer in human patients. The details of the methodology employed in the reported experiments may be determined with reference to established NCI screening methods.
In the experiments conducted by the NCI, evaluation of activity is made on the basis of appropriate parameters, such as median survival time (MST) or change in average tumor diameter (CATD)in ocular micrometer units (OMU).

[1] = 12.0 mg/kg/day, listed as benzisoquinolinedione
[2] = 24.0 mg/kg/day, females, day 8-9
[3] = 24.0 mg/kg/day, listed as benzisoquinolinedione

CN(C)CCN1C(=O)c2cccc3cc(N)cc(c23)C1=O [Example 9, 1H-Benz[de]isoquinoline-1,3(2H)-dione, 5-amino-2-[2-(dimethylamino)ethyl]]
gross or microscopic lesions (Fischer 344 rats; 6.0 mg/kg): No drug-related gross or microscopic lesions were found | Mortality / lethality (Fischer 344 rats; 6.0 mg/kg/day (1/2MELD10)): 0/20 | Hematologic findings (Fischer 344 rats; 6.0 mg/kg, listed as benzisoquinolinedione): Female rats showed moderate increases in reticulocytes on days 15 and 22, followed by a moderate decrease on day 36; also recorded: The males were not affected | Mortality / lethality (Fischer 344 rats; 12.0 mg/kg/day (MELD10)): 0/20 | Reproductive findings (Fischer 344 rats; 12.0 mg/kg/day, day 36, listed as benzisoquinolinedione): slight decrease in testicular weight on day 36; also recorded: moderate testicular atrophy in all males | mild to moderate diffuse bone marrow atrophy, incidence (Fischer 344 rats; 12.0 mg/kg/day, females, day 8): 4/5 | Hematologic findings (Fischer 344 rats; [1]): Slight decreases in hemoglobin, hematocrit and red blood cells were seen in female rats on day 8; also recorded: moderate reticulocytopenia; also recorded: male rats had a mild increase in reticulocytes on day 22; also recorded: Females had slight to mild leukocytosis on days 15 and 22; also recorded: The males had a moderate increase in WBC only on day 15; also recorded: No microscopic lesions were seen on day 36 in either sex | Integumentary findings (Fischer 344 rats; [1]): dry yellowish-white scaly tails; also recorded: microscopic evaluation did not show any tail lesions | mild thymic atrophy, incidence (Fischer 344 rats; 12.0 mg/kg/day, males, day 8): 1/5 | mild to moderate diffuse bone marrow atrophy, incidence (Fischer 344 rats; 12.0 mg/kg/day, males, day 8): 4/5 | Mortality / lethality (Fischer 344 rats; 24.0 mg/kg/day (2XMELD10), listed as benzisoquinolinedione): 5/20 and Two females were found dead and three females were sacrificed | marked testicular atrophy, incidence (Fischer 344 rats; 24.0 mg/kg/day, day 36): 2/5 | moderate testicular atrophy, incidence (Fischer 344 rats; 24.0 mg/kg/day, day 36): 2/5 | severe testicular atrophy, incidence (Fischer 344 rats; 24.0 mg/kg/day, day 36): 1/5 | moderate to marked spleen atrophy, incidence (Fischer 344 rats; 24.0 mg/kg/day, females): 3/10 | marked jejunal epithelial degeneration, incidence (Fischer 344 rats; 24.0 mg/kg/day, females, day 8): 5/10 | marked necrosis of mesenteric lymph node, incidence (Fischer 344 rats; 24.0 mg/kg/day, females, day 8): 1/10 | mild atrophy of mesenteric lymph node, incidence (Fischer 344 rats; 24.0 mg/kg/day, females, day 8): 1/10 | mild to marked duodenal epithelial degeneration, incidence (Fischer 344 rats; 24.0 mg/kg/day, females, day 8): 5/10 | mild to marked duodenal epithelial necrosis, incidence (Fischer 344 rats; 24.0 mg/kg/day, females, day 8): 7/10 | mild to marked ileal epithelial necrosis, incidence (Fischer 344 rats; 24.0 mg/kg/day, females, day 8): 10/10 | mild to marked jejunal epithelial necrosis, incidence (Fischer 344 rats; 24.0 mg/kg/day, females, day 8): 9/10 | mild to severe colonic epithelial necrosis, incidence (Fischer 344 rats; 24.0 mg/kg/day, females, day 8): 3/10 | moderate to marked ileal epithelial degeneration, incidence (Fischer 344 rats; 24.0 mg/kg/day, females, day 8): 5/10 | marked to severe bone marrow atrophy, incidence (Fischer 344 rats; [2]): 10/10 | marked to severe thymic atrophy, incidence (Fischer 344 rats; [2]): 9/10 | Hepatic findings (Fischer 344 rats; 24.0 mg/kg/day, females, day 9): multifocal liver necrosis in two females | Gastrointestinal findings (Fischer 344 rats; [3]): Diarrhea was observed on days 6 to 10 in males and days 6 to termination (day 8 or 9) in females; also recorded: mild to marked epithelial degeneration and necrosis of the duodenum, jejunum and ileum of both sexes; also recorded: No lesions were seen in long-term males; also recorded: emaciation (days 7-12) and dehydration (days 9-12) | Hematologic findings (Fischer 344 rats; [3]): Mild increases in hemoglobin, hematocrit and red blood cells were seen in male rats on day 8; also recorded: moderate to slight decreases in these parameters on days 15 and 22; also recorded: No reticulocytes were observable in either sex on day 8; also recorded: marked decreases being seen on day 8, followed by moderate to marked increases above baselines on days 15 and 22; also recorded: mild thrombocytosis | Reproductive findings (Fischer 344 rats; [3]): All five males showed decreased testicular weights on day 36; also recorded: No reproductive lesions were seen on day 8 in males or females | marked jejunal epithelial degeneration, incidence (Fischer 344 rats; 24.0 mg/kg/day, males, day 8): 4/5 | marked to severe bone marrow atrophy, incidence (Fischer 344 rats; 24.0 mg/kg/day, males, day 8): 5/5 | marked to severe thymic atrophy, incidence (Fischer 344 rats; 24.0 mg/kg/day, males, day 8): 3/5 | mild necrosis of the hair bulb, incidence (Fischer 344 rats; 24.0 mg/kg/day, males, day 8): 2/5 | mild to marked duodenal epithelial degeneration, incidence (Fischer 344 rats; 24.0 mg/kg/day, males, day 8): 4/5 | mild to marked duodenal epithelial necrosis, incidence (Fischer 344 rats; 24.0 mg/kg/day, males, day 8): 5/5 | mild to marked ileal epithelial necrosis, incidence (Fischer 344 rats; 24.0 mg/kg/day, males, day 8): 4/5 | mild to marked jejunal epithelial necrosis, incidence (Fischer 344 rats; 24.0 mg/kg/day, males, day 8): 4/5 | moderate to marked ileal epithelial degeneration, incidence (Fischer 344 rats; 24.0 mg/kg/day, males, day 8): 4/5 | depression of group mean body weights (Fischer 344 rats; 24.0 mg/kg/day, males, day 26 as printed): 31 | body weight loss at termination (Fischer 344 rats; 24.0 mg/kg/day, males, day 36): 31 | moderate bone marrow atrophy, incidence (Fischer 344 rats; 24.0 mg/kg/day, males, day 36): 1/5 | moderate to marked hyperkeratosis, incidence (Fischer 344 rats; 24.0 mg/kg/day, males, day 36): 4/5 | moderate to severe thymic atrophy, incidence (Fischer 344 rats; 24.0 mg/kg/day, males, day 36): 2/5 | depression of group mean body weights (Fischer 344 rats; 24.0 mg/kg/day, males, days 15 and 22): 26 | Tail (integumentary) findings (Fischer 344 rats; 24.0 mg/kg/day, males, listed as benzisoquinolinedione): the tail skin was friable and sloughing in males; also recorded: severe tail necrosis in all five males | Deaths, females (Fischer 344 rats; 2XMELD10, X5): one-half of the females | toxicity summary, rats (Fischer 344 rats; listed as BIDA): reproductive system toxicity was seen at doses of MELD 10 and higher | toxicity summary, rats (Fischer 344 rats; listed as benzisoquinolinedione): toxic on both schedules (X1, X5) to the hematopoietic system and to the male reproductive system; also recorded: gastrointestinal, tail lesions and possibly hepatotoxicity; also recorded: Toxicity to the testes and tails was delayed and had not reversed by day 36 | dosage range over which activity was observed (L-1210 Lymphoid Leukemia; listed as BIDA): two-fold dosing range | dosage range over which activity was observed (L-1210 Lymphoid Leukemia; listed as the compound): two-fold dosage range | mean optimal increased life span (ILS) (L-1210 Lymphoid Leukemia; ip, 16 mg/kg): 96% | optimal increased life spans (ILS) (L-1210 Lymphoid Leukemia; ip, 16 mg/kg): 75-117%
